Measurements published in ChEMBL document CHEMBL1201862, “PubChem BioAssay data set” (2004).
Active and inactive are the calls of the source.

Columns and labels:
[1] = molecular target: T1, Runt-related transcription factor 1/Core-binding factor subunit beta (Homo sapiens, UniProt Q01196+Q13951); assay: disruptors of Runt domain/CBFb-SMMHC interaction – biochemical, FRET, Cerulean-Runt, Venus-CBFb-SMMHC, uHTS, […] (AID 1434); type: protein assay
[2] = molecular target: T1, Runt-related transcription factor 1/Core-binding factor subunit beta; assay: Runt domain/CBFb-SMMHC interaction disruptors – biochemical, TR-FRET (AID 1438); type: protein assay
[3] = tested on: BJ; assay: BJ-TERT fibroblast viability loss – cell-based, RAS-independent, luminescence, dose response (AID 1933); type: functional; settings: Homo sapiens
[4] = molecular target: T2, Heat shock factor protein 1 (Mus musculus, UniProt P38532); assay: decrease of HSF1-responsive luciferase luminescence – cell-based, NIH3T3, dose retest, confirmation (AID 2382); type: functional;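 also: NIH3T3 fibroblasts with HSF1-driven luciferase reporter stressed by proteasome inhibitor MG132; luminescence from HSF1-driven luciferase expression after 8 hours of MG132 stress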
T2 sequence (P38532 whole entry): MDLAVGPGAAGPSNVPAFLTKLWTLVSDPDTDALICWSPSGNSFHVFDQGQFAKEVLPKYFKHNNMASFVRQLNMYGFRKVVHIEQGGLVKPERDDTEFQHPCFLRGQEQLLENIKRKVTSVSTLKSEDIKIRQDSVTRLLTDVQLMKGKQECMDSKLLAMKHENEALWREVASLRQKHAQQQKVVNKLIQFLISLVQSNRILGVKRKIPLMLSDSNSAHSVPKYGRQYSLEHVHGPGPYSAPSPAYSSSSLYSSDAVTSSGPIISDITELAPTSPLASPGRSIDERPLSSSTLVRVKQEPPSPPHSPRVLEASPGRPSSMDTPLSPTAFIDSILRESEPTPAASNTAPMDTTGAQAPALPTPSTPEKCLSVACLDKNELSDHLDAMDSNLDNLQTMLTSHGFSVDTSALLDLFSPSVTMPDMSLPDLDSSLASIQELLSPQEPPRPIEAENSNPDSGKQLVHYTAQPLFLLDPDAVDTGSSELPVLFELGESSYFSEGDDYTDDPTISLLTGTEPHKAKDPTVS

[5] = tested on: BJ; assay: cells; type: functional, cell-based; settings: Homo sapiens
[6] = microbe, parasite or virus in culture; type: functional; settings: Mycobacterium tuberculosis
[7] = tested on: BJ; assay: BJ-TERT-LT-ST fibroblast viability loss – cell-based, RAS-independent, luminescence, dose response (AID 1935); type: functional; settings: Homo sapiens;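 also: BJ fibroblasts immortalized with TERT plus LT and ST oncogenes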
[8] = DRD fibroblast viability loss – cell-based, non-viral oncogenic, luminescence, dose response (AID 1934); type: functional; settings: Homo sapiens
[9] = Intein inhibitors as potential Tuberculosis drugs, a cytotoxicity screen. [Related pubchem assays (depositor defined):AID2221, AID2223, AID434968, AID435010, AID449749, AID449750, AID489010]; type: functional
[10] = molecular target: T3, Replicative DNA helicase DnaB (Mycobacterium tuberculosis, UniProt P9WMR3); assay: DnaB intein splicing inhibitors, dose response, biochemical, cell-free fluorescence (AID 449749); type: functional
T3 sequence (P9WMR3 whole entry): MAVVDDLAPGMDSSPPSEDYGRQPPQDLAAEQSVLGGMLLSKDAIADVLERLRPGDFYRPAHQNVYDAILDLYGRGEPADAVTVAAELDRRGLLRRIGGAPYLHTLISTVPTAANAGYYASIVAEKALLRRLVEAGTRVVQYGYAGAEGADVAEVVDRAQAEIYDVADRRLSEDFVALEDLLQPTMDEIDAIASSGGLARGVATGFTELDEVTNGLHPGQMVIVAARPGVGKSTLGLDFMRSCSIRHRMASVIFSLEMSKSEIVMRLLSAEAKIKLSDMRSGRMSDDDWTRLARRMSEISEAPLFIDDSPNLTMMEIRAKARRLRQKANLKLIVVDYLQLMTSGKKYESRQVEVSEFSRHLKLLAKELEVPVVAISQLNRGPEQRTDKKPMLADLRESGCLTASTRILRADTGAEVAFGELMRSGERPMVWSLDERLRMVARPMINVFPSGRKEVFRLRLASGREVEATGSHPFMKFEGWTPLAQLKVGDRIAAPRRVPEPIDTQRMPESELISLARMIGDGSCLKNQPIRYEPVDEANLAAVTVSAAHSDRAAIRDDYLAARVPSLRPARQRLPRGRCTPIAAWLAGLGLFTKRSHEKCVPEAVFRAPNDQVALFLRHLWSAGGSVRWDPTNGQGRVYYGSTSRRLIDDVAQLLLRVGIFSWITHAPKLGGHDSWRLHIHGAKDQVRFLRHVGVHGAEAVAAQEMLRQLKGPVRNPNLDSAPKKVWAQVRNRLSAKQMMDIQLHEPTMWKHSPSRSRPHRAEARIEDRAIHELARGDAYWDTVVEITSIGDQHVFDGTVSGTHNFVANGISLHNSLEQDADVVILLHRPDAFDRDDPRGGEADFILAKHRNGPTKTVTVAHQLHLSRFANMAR

[11] = tested on: BJ; assay: growth inhibition of engineered Ras-driven BJ cells – cell-based, alamar blue fluorescence, cherrypicked samples, dose response (AID 2631); type: functional; settings: Homo sapiens;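 also: confirmatory dose-response assay in RAS-dependent BJ fibroblasts engineered with TERT, LT and ST, with cytotoxicity read by fluorescence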
[12] = molecular target: T4, Protein RecA (Mycobacterium tuberculosis, UniProt P9WHJ3); assay: Fluorescence Cell-Free Homogeneous Dose Retest to Identify Inhibitors of RecA-Intein Splicing Activity. [Related pubchem assays (depositor defined):AID2097, AID2223, AID489010, AID492950]; type: functional
T4 sequence (P9WHJ3 whole entry): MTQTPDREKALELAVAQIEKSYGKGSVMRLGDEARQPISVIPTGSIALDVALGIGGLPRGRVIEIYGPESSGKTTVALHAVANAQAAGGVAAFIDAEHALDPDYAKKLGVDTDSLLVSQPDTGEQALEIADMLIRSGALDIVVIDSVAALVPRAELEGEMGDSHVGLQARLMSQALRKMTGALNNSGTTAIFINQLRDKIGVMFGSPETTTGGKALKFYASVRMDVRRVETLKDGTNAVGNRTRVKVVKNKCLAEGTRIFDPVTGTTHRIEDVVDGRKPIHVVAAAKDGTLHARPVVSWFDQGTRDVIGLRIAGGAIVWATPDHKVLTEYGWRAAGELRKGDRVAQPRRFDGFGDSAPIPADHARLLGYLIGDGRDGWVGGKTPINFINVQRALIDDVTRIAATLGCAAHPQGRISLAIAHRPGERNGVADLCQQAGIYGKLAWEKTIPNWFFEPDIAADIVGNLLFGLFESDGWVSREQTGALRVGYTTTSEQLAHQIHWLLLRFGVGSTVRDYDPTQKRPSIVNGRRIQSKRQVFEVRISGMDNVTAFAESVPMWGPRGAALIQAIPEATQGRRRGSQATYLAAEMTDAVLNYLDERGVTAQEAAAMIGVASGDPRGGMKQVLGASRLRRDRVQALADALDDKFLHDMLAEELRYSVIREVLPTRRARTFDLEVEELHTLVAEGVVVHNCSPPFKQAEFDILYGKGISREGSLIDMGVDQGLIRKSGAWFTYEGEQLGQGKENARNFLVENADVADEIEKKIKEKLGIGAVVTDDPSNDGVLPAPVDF

[13] = molecular target: T5, Sphingosine 1-phosphate receptor 4 (Homo sapiens, UniProt O95977); assay: Fluorescence dose response cell-based high throughput screening assay for antagonists of the Sphingosine 1-Phosphate Receptor 4 (S1P4). [Related pubchem assays: 1524 (Confirmation in triplicates.), 1510 (Primary screen.)]; type: functional
T5 sequence (O95977 whole entry): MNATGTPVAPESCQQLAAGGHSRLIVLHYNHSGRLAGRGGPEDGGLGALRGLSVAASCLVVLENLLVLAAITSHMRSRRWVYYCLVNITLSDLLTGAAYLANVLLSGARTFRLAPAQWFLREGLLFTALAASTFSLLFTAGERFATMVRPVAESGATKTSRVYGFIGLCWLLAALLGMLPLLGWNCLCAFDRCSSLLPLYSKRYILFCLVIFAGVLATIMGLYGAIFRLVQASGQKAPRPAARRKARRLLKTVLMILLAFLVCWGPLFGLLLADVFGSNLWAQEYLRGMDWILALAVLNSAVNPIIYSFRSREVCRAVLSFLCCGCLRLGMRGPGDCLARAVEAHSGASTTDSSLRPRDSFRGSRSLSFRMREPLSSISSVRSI

[14] = molecular target: Sphingosine 1-phosphate receptor 1 (Homo sapiens, UniProt P21453); type: functional;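 also: Tango beta-arrestin reporter U2OS cells stimulated with S1P near its EC80; inhibitor potency meaning antagonism of receptor activation by the natural agonist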
[15] = molecular target: Integrin alpha-4 (Homo sapiens, UniProt P13612); assay: allosteric modulators of alpha4 integrin VLA-4 – cell-based, LIBS antibody binding, flow cytometry, SAR follow-up (AID 488791); type: functional
[16] = tested on: CHO; assay: CHO cell viability loss, potency – luminescence, cytotoxicity control for TLR9-MyD88 binding inhibitor project, dose response (AID 588339); type: functional, cell-based, hamster; settings: Cricetulus griseus;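 also: CHO cells stably coexpressing TLR9 and MyD88 fusions from primary screen; compound exposure lasted 48 hours before viability readout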
[17] = molecular target: Beta Lactamase (Pseudomonas aeruginosa, UniProt Q932Y6); assay: BLA reporter interference, concentration series – BLA reporter cells, FRET fluorescence, artefact control for TLR9-MyD88 binding inhibitor project, dose response (AID 588341); type: cell-based;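 also: cell based assay in CHO-K1 cells stably expressing beta-lactamase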
[18] = molecular target: T6, Kappa-type opioid receptor (Homo sapiens, UniProt P41145); assay: kappa opioid receptor activation by imaging – image-based, set 3, SAR follow-up (AID 488833); type: functional
[19] = molecular target: Mu-type opioid receptor (Homo sapiens, UniProt P35372); assay: SAR Analysis of Agonists of the MOR Receptor using an Image-Based Assay - Set 3. [Related pubchem assays (depositor defined):AID1777, AID1785, AID1786, AID1966, AID2133, AID2136, AID2284, AID2285, AID2352]; type: functional
[20] = molecular target: Delta-type opioid receptor (Homo sapiens, UniProt P41143); assay: SAR Analysis of Agonists of the DOR Receptor using an Image-Based Assay - Set 3. [Related pubchem assays (depositor defined):AID1777, AID1786]; type: functional
[21] = molecular target: T6, Kappa-type opioid receptor; assay: SAR analysis of small molecule agonists of the kappa opioid receptor via a luminescent beta-arrestin assay - Set 3. [Related pubchem assays (depositor defined):AID1777, AID1785, AID1786, AID1966, AID2133, AID2136, AID2284, AID2500]; type: functional
[22] = molecular target: T7, Cannabinoid receptor 2 (Homo sapiens, UniProt P34972); assay: SAR analysis of antagonists of the Cannabinoid Receptor 2 using an Image-Based Assay - Set 2. [Related pubchem assays (depositor defined):AID1961, AID1965]; type: functional
[23] = molecular target: G-protein coupled receptor 55 (Homo sapiens, UniProt Q9Y2T6); assay: SAR analysis of selective Agonists of GPR55 using an Image-Based Assay - Set 2. [Related pubchem assays (depositor defined):AID1961, AID1965]; type: functional
[24] = molecular target: T7, Cannabinoid receptor 2; assay: SAR analysis of agonists of the Cannabinoid Receptor 2 using an Image-Based Assay - Set 2. [Related pubchem assays (depositor defined):AID1961, AID1965]; type: functional
[25] = molecular target: T8, G-protein coupled receptor 35 (Homo sapiens, UniProt Q9HC97); assay: SAR analysis of Agonists of the GPR35 Receptor using an Image-Based Assay - Set 3. [Related pubchem assays (depositor defined):AID1961, AID1965]; type: functional
[26] = molecular target: T9, Cannabinoid receptor 1 (Homo sapiens, UniProt P21554); assay: SAR analysis of antagonists of the Cannabinoid Receptor 1 using an Image-Based Assay - Set 3. [Related pubchem assays (depositor defined):AID1961, AID1965]; type: functional
[27] = molecular target: T9, Cannabinoid receptor 1; assay: SAR analysis of agonists of the Cannabinoid Receptor 1 using an Image-Based Assay - Set 3. [Related pubchem assays (depositor defined):AID1961, AID1965]; type: functional
[28] = molecular target: T8, G-protein coupled receptor 35; assay: SAR analysis of Antagonists of the GPR35 Receptor using an Image-Based Assay - Set 4. [Related pubchem assays (depositor defined):[…]]; type: functional
[29] = molecular target: T5, Sphingosine 1-phosphate receptor 4; assay: Late-stage fluorescence dose response cell-based assay to identify agonists of the Sphingosine 1-Phosphate Receptor 4 (S1P4): purchased compounds EC50. [Related pubchem assays (depositor defined):AID1509, AID1523, AID1563, AID1686, AID1701, AID1801]; type: functional

T8 sequence (Q9HC97 whole entry): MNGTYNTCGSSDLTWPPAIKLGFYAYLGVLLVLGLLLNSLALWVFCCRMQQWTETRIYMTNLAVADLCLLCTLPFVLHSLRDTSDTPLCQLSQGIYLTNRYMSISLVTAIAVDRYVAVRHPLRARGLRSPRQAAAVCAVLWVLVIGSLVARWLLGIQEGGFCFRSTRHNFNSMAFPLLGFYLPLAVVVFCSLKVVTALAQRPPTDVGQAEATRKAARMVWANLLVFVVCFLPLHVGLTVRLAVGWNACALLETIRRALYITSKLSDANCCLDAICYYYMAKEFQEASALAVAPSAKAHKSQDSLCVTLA
T9 sequence (P21554 whole entry): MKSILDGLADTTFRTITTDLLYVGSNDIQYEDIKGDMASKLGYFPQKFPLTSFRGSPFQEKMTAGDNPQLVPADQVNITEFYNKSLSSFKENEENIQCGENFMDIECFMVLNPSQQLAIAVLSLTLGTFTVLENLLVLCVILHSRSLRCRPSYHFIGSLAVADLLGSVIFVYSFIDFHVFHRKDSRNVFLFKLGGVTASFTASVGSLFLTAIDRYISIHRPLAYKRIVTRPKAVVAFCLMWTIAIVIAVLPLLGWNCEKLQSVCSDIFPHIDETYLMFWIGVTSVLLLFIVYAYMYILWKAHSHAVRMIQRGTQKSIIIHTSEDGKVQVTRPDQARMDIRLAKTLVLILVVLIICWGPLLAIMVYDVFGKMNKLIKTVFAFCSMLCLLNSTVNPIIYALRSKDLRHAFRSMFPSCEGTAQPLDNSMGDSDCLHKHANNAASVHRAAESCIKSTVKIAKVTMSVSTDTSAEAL
T7 sequence (P34972 whole entry): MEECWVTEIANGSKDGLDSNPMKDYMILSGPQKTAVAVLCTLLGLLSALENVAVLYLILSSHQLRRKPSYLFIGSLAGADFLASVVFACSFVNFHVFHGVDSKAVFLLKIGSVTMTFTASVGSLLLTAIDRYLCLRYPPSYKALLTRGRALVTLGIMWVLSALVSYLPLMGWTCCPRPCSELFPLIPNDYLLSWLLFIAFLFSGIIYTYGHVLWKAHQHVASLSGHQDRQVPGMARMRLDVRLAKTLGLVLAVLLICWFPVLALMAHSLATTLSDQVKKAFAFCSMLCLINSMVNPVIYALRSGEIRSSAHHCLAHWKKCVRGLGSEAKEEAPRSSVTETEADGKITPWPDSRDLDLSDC
T6 sequence (P41145 whole entry): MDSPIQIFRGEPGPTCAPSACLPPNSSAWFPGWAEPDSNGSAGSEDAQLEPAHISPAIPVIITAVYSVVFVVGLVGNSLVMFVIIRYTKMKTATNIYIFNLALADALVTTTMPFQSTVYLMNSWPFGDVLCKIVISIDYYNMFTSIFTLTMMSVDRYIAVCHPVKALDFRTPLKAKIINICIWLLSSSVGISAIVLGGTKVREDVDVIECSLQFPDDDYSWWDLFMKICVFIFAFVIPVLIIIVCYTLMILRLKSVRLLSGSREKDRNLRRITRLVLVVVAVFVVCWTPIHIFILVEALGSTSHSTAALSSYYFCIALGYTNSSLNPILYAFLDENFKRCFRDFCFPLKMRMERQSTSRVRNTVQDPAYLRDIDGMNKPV
T1 sequence (Q01196 whole entry, the tested form may be a part): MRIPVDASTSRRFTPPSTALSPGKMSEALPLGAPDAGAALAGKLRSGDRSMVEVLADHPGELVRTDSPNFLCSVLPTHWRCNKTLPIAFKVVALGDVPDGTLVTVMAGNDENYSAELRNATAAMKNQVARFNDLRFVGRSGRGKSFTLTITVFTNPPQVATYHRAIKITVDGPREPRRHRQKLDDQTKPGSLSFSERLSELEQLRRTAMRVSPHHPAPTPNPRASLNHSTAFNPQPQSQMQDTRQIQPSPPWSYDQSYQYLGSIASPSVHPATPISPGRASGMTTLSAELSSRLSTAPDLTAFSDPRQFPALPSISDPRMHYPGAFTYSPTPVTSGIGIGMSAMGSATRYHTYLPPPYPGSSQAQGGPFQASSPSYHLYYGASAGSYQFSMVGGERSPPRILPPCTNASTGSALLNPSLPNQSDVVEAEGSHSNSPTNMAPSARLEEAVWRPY
T1 sequence (Q13951 whole entry, the tested form may be a part): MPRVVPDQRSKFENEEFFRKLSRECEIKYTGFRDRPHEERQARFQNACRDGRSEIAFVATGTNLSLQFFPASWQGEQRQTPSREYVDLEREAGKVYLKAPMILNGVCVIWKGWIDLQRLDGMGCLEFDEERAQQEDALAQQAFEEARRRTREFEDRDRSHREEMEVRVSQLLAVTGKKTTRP
Sphingosine 1-phosphate receptor 1, sequence (P21453 whole entry): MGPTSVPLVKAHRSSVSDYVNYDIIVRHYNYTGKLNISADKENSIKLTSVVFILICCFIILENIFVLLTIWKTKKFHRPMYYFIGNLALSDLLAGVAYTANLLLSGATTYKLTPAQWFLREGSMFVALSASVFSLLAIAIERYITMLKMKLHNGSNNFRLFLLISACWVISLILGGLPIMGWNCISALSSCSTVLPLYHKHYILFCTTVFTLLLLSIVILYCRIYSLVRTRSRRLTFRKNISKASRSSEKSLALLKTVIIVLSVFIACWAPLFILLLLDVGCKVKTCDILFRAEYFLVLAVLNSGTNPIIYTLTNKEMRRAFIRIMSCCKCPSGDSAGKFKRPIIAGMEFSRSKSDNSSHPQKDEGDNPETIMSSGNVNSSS
Beta Lactamase, sequence (Q932Y6 whole entry): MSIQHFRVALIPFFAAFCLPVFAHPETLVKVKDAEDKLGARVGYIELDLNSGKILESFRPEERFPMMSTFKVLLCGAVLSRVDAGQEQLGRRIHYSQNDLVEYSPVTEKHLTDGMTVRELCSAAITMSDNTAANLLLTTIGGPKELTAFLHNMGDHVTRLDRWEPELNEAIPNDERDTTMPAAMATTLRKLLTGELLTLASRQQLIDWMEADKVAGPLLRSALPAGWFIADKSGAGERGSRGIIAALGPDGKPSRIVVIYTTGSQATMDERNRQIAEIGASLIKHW
G-protein coupled receptor 55, sequence (Q9Y2T6 whole entry): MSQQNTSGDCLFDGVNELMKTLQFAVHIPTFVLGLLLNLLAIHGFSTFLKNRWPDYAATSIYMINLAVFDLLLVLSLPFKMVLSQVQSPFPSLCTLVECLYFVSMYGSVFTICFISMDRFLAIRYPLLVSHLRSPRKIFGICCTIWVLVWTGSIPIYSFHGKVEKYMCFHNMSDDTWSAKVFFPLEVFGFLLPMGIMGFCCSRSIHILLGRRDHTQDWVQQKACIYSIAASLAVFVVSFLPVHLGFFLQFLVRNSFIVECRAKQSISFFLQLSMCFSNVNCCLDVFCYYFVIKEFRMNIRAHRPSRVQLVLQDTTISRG
Delta-type opioid receptor, sequence (P41143 whole entry): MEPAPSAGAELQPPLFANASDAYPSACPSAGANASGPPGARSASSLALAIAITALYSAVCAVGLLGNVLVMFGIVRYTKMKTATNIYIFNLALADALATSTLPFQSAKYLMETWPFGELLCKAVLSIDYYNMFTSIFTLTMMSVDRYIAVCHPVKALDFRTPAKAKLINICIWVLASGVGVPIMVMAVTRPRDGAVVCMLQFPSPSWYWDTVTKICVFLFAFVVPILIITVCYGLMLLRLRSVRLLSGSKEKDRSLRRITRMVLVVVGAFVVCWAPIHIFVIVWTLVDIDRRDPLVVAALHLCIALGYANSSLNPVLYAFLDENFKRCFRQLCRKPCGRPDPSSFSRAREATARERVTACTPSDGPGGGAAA
Integrin alpha-4, sequence (P13612 whole entry, the tested form may be a part): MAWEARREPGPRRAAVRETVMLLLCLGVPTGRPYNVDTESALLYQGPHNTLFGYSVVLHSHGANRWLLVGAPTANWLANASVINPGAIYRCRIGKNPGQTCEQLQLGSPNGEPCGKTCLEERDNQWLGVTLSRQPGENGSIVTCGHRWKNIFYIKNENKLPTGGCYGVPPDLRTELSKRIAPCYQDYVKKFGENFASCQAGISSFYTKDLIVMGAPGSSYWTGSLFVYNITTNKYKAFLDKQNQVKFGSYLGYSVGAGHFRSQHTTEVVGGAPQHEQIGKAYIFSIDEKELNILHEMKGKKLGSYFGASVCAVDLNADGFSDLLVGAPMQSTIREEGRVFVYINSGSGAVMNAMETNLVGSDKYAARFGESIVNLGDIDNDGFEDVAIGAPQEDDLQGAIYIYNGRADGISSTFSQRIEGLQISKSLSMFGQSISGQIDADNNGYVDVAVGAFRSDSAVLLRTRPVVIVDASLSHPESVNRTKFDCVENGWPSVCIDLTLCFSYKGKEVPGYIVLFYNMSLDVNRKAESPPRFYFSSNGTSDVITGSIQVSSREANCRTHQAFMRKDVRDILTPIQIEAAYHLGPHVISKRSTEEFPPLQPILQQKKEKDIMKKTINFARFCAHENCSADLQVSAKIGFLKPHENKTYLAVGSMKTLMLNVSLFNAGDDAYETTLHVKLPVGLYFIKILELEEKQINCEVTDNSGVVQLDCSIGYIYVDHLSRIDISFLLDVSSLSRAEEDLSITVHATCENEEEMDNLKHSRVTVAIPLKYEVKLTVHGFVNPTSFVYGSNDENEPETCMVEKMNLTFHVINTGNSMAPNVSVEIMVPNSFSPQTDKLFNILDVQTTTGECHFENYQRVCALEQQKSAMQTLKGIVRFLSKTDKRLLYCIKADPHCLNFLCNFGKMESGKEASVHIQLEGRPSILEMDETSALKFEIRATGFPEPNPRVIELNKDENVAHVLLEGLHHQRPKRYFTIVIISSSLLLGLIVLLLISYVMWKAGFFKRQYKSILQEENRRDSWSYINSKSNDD
Mu-type opioid receptor, sequence (P35372 whole entry): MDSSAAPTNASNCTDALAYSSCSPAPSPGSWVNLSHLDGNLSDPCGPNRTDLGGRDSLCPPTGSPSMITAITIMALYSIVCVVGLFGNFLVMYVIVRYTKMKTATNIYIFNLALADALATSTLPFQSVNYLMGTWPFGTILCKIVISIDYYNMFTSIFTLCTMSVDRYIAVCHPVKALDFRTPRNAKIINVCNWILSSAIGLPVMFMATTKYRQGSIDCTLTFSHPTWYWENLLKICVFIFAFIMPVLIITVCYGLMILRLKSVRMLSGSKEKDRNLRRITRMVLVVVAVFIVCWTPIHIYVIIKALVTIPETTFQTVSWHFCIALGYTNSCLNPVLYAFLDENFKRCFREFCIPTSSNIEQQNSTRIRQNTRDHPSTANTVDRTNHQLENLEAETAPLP

With `COC(=O)C1=C(CSc2nc3c(cc2C#N)CN(C)CC3)OC(N)=C(C#N)C1c1ccccc1F` (centres undefined) the IC50 [1] was > 100 µM (inactive) and the IC50 [2] was 60.9 µM (inactive).
In the case of `COc1cc2c(cc1OC)C(c1cc(Br)ccc1F)N(C(=O)CCl)CC2` (centres undefined), the EC50 [3] is reported as 2.7 µM (inconclusive), the EC50 [4] is reported as 3.09 µM (active) and the EC50 [5] is reported as 6.1 µM (active). For the same compound, the CC50 [6] was 5.64 µM (active), the EC50 [7] was 5.02 µM (inconclusive) and the EC50 [8] was 5.12 µM (active). The CC50 [9] was 4.2 µM (active), the AC50 [10] was 4.29 µM (active) and the EC50 [11] was 1.41 µM (active). The EC50 [12] was 0.8 µM (active).
With `CCOC(=O)COc1ccccc1/C=C\[N+](=O)[O-]` the EC50 [3] was 3.48 µM (inconclusive), the EC50 [4] was 4.03 µM (active) and the EC50 [5] was 26.7 µM (active). For the same compound, the IC50 [13] was 0.962 µM (active), the EC50 [7] was 3.99 µM (inconclusive) and the EC50 [8] was 4.76 µM (active). The IC50 [14] was 3.42 µM (active), the EC50 [15] was 0.335 µM (active) and the IC50 [16] was 1.92 µM (active). The IC50 [17] was > 49.7 µM (inactive).
With `COc1cccc(CSc2nnc(-c3ccccn3)n2Cc2cccs2)c1` the EC50 [18] was 12.2 µM (inactive), the EC50 [19] was > 32 µM (inactive) and the EC50 [20] was > 32 µM (inactive). For the same compound, the EC50 [21] was 8.72 µM (active).
For `Cc1ccc(-c2csc(NC(=O)CSc3nnc4cc(C)c5ccccc5n34)n2)cc1`, the IC50 [22] was > 32 µM (inactive), the EC50 [23] was 11.5 µM (inactive) and the EC50 [24] was > 32 µM (inactive). The EC50 [25] was > 32 µM (inactive), the IC50 [26] was > 32 µM (inactive) and the EC50 [27] was > 32 µM (inactive). The IC50 [28] was > 32 µM (inactive).
For `Cc1ccc(OCC(=O)Nc2cccc(Cl)c2)c([N+](=O)[O-])n1`, the EC50 [29] was > 50 µM (inactive).
